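A five-concentration, 48-hour dose response in 96-well plates underlies each endpoint, interpolated linearly between surrounding concentrations. TGI marks complete inhibition of growth.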
Key:
Assay in all cases: inhibition of tumour cell growth, NCI panel, 48 h
KM12 colon = system: KM12 colon
MCF7 breast = system: MCF7 breast
SK-OV-3 ovarian = system: SK-OV-3 ovarian
MOLT-4 leukemia = system: MOLT-4 leukemia
EKVX NSCLC = system: EKVX NSCLC
SNB-19 CNS = system: SNB-19 CNS
PC-3 prostate = system: PC-3 prostate
SK-MEL-28 melanoma = system: SK-MEL-28 melanoma
SF-295 CNS = system: SF-295 CNS
UO-31 renal = system: UO-31 renal
T-47D breast = system: T-47D breast
HOP-62 NSCLC = system: HOP-62 NSCLC
IGROV1 ovarian = system: IGROV1 ovarian
DU-145 prostate = system: DU-145 prostate
MDA-MB-435 = system: MDA-MB-435
NCI-H226 lung = system: NCI-H226 lung
CCRF-CEM leukemia = system: CCRF-CEM leukemia
HS 578T breast = system: HS 578T breast
U251 CNS = system: U251 CNS
OVCAR-3 ovarian = system: OVCAR-3 ovarian
SNB-75 CNS = system: SNB-75 CNS
HOP-92 NSCLC = system: HOP-92 NSCLC
A498 renal = system: A498 renal
A549 NSCLC = system: A549 NSCLC
TK-10 renal = system: TK-10 renal
SW-620 colon = system: SW-620 colon
MDA-N = system: MDA-N
RPMI-8226 leukemia = system: RPMI-8226 leukemia
SR leukemia = system: SR leukemia
NCI-H23 lung = system: NCI-H23 lung
786-0 renal = system: 786-0 renal
UACC-62 melanoma = system: UACC-62 melanoma
NCI-H460 lung = system: NCI-H460 lung
OVCAR-5 ovarian = system: OVCAR-5 ovarian
K-562 leukemia = system: K-562 leukemia
MALME-3M melanoma = system: MALME-3M melanoma
CAKI-1 renal = system: CAKI-1 renal
SF-539 CNS = system: SF-539 CNS
SF-268 CNS = system: SF-268 CNS
NCI/ADR-RES ovarian = system: NCI/ADR-RES ovarian
ACHN renal = system: ACHN renal
LOX IMVI melanoma = system: LOX IMVI melanoma
OVCAR-8 ovarian = system: OVCAR-8 ovarian
SK-MEL-2 melanoma = system: SK-MEL-2 melanoma
OVCAR-4 ovarian = system: OVCAR-4 ovarian
SK-MEL-5 melanoma = system: SK-MEL-5 melanoma
HL-60(TB) leukemia = system: HL-60(TB) leukemia
HCT-15 colon = system: HCT-15 colon
HCC-2998 colon = system: HCC-2998 colon
UACC-257 melanoma = system: UACC-257 melanoma
RXF 393 renal = system: RXF 393 renal
M14 melanoma = system: M14 melanoma
MDA-MB-231 breast = system: MDA-MB-231 breast
COLO 205 colon = system: COLO 205 colon
HT29 colon = system: HT29 colon
HCT-116 colon = system: HCT-116 colon
SN12C renal = system: SN12C renal
NCI-H522 lung = system: NCI-H522 lung

CC(C)(C)COC1C2(OCCO2)C2CCC1(C)C2(C)C (stereo unspecified)
TGI (KM12 colon): 42 µM | TGI (MCF7 breast): 37.3 µM | TGI (SK-OV-3 ovarian): > 100 µM | TGI (MOLT-4 leukemia): 39.7 µM | TGI (EKVX NSCLC): 79.9 µM | TGI (SNB-19 CNS): 41.7 µM | TGI (PC-3 prostate): 54.5 µM | TGI (SK-MEL-28 melanoma): > 100 µM | TGI (SF-295 CNS): 35.2 µM | TGI (UO-31 renal): 65.1 µM | TGI (T-47D breast): 68.5 µM | TGI (HOP-62 NSCLC): 59.2 µM | TGI (IGROV1 ovarian): > 100 µM | TGI (DU-145 prostate): > 100 µM | TGI (MDA-MB-435): > 100 µM | TGI (NCI-H226 lung): > 100 µM | TGI (CCRF-CEM leukemia): 37.8 µM | TGI (HS 578T breast): 90.1 µM | TGI (U251 CNS): 34.3 µM | TGI (OVCAR-3 ovarian): 33.3 µM | TGI (SNB-75 CNS): 67.6 µM | TGI (HOP-92 NSCLC): 70.2 µM | TGI (A498 renal): > 100 µM | TGI (A549 NSCLC): 48 µM | TGI (TK-10 renal): > 100 µM | TGI (SW-620 colon): 37.9 µM | TGI (MDA-N): > 100 µM | TGI (RPMI-8226 leukemia): 41.7 µM | TGI (SR leukemia): 40.6 µM | TGI (NCI-H23 lung): > 100 µM | TGI (786-0 renal): 34.5 µM | TGI (UACC-62 melanoma): > 100 µM | TGI (NCI-H460 lung): > 100 µM | TGI (OVCAR-5 ovarian): 73.8 µM | TGI (K-562 leukemia): 35.7 µM | TGI (MALME-3M melanoma): 64 µM | TGI (CAKI-1 renal): > 100 µM | TGI (SF-539 CNS): > 100 µM | TGI (SF-268 CNS): > 100 µM | TGI (NCI/ADR-RES ovarian): > 100 µM | TGI (ACHN renal): 42.1 µM | TGI (LOX IMVI melanoma): 38 µM | TGI (OVCAR-8 ovarian): 55.9 µM | TGI (SK-MEL-2 melanoma): 50.2 µM | TGI (OVCAR-4 ovarian): > 100 µM | TGI (SK-MEL-5 melanoma): > 100 µM | TGI (HL-60(TB) leukemia): 44.2 µM | TGI (HCT-15 colon): 50 µM | TGI (HCC-2998 colon): > 100 µM | TGI (UACC-257 melanoma): 70.5 µM | TGI (RXF 393 renal): 36 µM | TGI (M14 melanoma): > 100 µM | TGI (MDA-MB-231 breast): > 100 µM | TGI (COLO 205 colon): 91.1 µM | TGI (HT29 colon): 74.4 µM

CCOC(=O)C(COS(C)(=O)=O)(COS(C)(=O)=O)C(=O)OCC
TGI (KM12 colon): > 100 µM | TGI (MCF7 breast): > 100 µM | TGI (SK-OV-3 ovarian): > 100 µM | TGI (MOLT-4 leukemia): > 100 µM | TGI (SNB-19 CNS): > 100 µM | TGI (PC-3 prostate): > 100 µM | TGI (SK-MEL-28 melanoma): > 100 µM | TGI (SF-295 CNS): > 100 µM | TGI (UO-31 renal): > 100 µM | TGI (T-47D breast): > 100 µM | TGI (DU-145 prostate): > 100 µM | TGI (MDA-MB-435): > 100 µM | TGI (NCI-H226 lung): > 100 µM | TGI (CCRF-CEM leukemia): > 100 µM | TGI (HS 578T breast): > 100 µM | TGI (U251 CNS): > 100 µM | TGI (OVCAR-3 ovarian): > 100 µM | TGI (SNB-75 CNS): > 100 µM | TGI (HOP-92 NSCLC): > 100 µM | TGI (A498 renal): > 100 µM | TGI (A549 NSCLC): > 100 µM | TGI (TK-10 renal): > 100 µM | TGI (SW-620 colon): > 100 µM | TGI (MDA-N): > 100 µM | TGI (SR leukemia): > 100 µM | TGI (NCI-H23 lung): > 100 µM | TGI (HCT-116 colon): > 100 µM | TGI (NCI-H460 lung): > 100 µM | TGI (K-562 leukemia): > 100 µM | TGI (SF-268 CNS): > 100 µM | TGI (NCI/ADR-RES ovarian): > 100 µM | TGI (ACHN renal): > 100 µM | TGI (LOX IMVI melanoma): > 100 µM | TGI (OVCAR-8 ovarian): > 100 µM | TGI (OVCAR-4 ovarian): > 100 µM | TGI (SK-MEL-5 melanoma): > 100 µM | TGI (HCT-15 colon): > 100 µM | TGI (HCC-2998 colon): > 100 µM | TGI (UACC-257 melanoma): > 100 µM | TGI (RXF 393 renal): > 100 µM | TGI (M14 melanoma): > 100 µM | TGI (MDA-MB-231 breast): > 100 µM | TGI (SN12C renal): > 100 µM | TGI (NCI-H522 lung): > 100 µM | TGI (COLO 205 colon): > 100 µM | TGI (HT29 colon): > 100 µM

Reference: PubChem BioAssay (NCI)
